Experimental data from ChEMBL document CHEMBL1140941 (J Med Chem, 2009).
The source made the active and inactive calls. The rule behind the calls is not given here.

How the values were obtained:
[1] = target: T1, Mineralocorticoid receptor (Homo sapiens) (UniProt P08235); test: Agonist activity at gal-MR expressed in african green monkey CV1 cells co-expressing MH100 by luciferase reporter gene assay; format: functional, cell-based; conditions: CV-1
T1 sequence (whole entry): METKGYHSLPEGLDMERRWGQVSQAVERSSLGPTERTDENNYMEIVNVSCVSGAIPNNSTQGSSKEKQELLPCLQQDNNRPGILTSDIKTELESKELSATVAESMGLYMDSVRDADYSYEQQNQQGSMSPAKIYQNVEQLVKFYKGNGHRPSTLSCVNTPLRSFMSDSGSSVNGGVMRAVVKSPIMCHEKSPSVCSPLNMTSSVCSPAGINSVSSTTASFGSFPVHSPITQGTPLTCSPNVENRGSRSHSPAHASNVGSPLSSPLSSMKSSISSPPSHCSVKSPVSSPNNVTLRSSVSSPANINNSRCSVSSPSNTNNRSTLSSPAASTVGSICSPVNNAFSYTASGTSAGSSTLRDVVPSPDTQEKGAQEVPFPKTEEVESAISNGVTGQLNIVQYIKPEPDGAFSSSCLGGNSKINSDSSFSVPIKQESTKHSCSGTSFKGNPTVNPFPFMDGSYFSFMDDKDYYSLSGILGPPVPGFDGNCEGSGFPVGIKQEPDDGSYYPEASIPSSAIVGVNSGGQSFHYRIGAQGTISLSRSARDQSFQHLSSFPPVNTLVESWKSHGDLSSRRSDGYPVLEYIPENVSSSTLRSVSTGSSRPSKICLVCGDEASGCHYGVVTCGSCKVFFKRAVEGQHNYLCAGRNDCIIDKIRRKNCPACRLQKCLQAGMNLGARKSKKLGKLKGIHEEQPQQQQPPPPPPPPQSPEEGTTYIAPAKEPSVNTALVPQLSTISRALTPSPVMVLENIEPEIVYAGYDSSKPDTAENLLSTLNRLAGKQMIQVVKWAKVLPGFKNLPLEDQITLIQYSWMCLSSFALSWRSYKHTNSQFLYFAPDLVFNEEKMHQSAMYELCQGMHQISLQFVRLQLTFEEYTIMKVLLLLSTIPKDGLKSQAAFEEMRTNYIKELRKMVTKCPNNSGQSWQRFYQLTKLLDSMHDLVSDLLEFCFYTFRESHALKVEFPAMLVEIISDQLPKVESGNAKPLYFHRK

[2] = target: T2, Peroxisome proliferator-activated receptor delta (Homo sapiens) (UniProt Q03181); test: Agonist activity at PPARdelta expressed in african green monkey CV1 cells co-expressing MH100 up to 10 uM by luciferase reporter gene assay relative to control; format: functional, cell-based; conditions: CV-1
T2 sequence (whole entry): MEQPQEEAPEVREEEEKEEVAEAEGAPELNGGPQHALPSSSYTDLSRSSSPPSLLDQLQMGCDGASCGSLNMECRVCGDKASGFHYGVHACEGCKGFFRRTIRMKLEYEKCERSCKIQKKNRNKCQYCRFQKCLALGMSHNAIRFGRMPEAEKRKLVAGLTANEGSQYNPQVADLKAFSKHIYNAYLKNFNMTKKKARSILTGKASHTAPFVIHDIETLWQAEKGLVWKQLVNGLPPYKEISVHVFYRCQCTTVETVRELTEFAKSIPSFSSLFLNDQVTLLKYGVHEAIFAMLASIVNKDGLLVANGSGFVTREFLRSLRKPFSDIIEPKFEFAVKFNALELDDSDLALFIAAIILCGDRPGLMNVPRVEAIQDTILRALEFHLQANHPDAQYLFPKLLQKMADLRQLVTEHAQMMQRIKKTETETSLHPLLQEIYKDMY

[3] = target: Nuclear receptor subfamily 1 group I member 2 (Homo sapiens, UniProt O75469); test: Agonist activity at SXR expressed in african green monkey CV1 cells co-expressing MH100 up to 10 uM by luciferase reporter gene assay relative to control; format: functional, cell-based; conditions: cv-1
Nuclear receptor subfamily 1 group I member 2, sequence (O75469 whole entry): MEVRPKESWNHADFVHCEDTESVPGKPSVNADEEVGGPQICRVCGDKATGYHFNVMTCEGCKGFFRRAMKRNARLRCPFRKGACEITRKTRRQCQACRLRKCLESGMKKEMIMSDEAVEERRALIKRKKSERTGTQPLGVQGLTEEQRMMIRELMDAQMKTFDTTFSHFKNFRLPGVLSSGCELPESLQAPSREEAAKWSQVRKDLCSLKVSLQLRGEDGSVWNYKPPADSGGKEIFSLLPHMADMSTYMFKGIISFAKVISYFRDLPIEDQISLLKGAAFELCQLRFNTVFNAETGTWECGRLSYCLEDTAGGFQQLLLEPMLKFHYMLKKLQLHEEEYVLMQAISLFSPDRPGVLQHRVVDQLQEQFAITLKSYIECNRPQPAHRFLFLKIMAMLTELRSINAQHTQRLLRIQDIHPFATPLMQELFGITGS

[4] = target: T3, Glucocorticoid receptor (Homo sapiens) (UniProt P04150); test: Antagonist activity at gal-GR expressed in african green monkey CV1 cells co-expressing MH100 at 10 uM by luciferase reporter gene assay; format: functional, cell-based; conditions: CV-1
T3 sequence (whole entry): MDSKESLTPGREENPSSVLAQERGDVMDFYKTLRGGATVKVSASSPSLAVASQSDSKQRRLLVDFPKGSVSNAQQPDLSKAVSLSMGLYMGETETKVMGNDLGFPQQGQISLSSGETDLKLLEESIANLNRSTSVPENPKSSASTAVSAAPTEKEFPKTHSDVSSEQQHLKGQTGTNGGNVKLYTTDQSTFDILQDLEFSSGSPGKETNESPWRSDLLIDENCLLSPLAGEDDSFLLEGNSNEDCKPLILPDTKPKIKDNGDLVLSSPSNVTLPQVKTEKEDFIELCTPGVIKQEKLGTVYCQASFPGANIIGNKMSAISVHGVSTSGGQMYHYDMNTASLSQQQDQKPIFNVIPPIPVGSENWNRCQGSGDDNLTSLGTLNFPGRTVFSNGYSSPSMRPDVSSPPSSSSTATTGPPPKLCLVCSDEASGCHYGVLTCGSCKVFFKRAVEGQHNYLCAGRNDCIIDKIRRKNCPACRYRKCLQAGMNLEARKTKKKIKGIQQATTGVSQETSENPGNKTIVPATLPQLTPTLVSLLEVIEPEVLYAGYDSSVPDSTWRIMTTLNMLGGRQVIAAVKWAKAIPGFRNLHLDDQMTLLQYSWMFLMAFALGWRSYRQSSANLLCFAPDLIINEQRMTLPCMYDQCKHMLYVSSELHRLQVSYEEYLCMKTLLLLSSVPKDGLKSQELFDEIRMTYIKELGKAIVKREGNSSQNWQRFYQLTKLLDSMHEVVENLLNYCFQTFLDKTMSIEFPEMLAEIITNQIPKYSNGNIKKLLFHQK

[5] = Volume of distribution in CD rat at 3 mg/kg, iv; format: ADME, organism-based; parameters: dose 3 mg/kg, route intravenous; conditions: in vivo, read-out: Vdss
[6] = Half life in CD rat at 3 mg/kg, iv; format: ADME, organism-based; parameters: dose 3 mg/kg, route intravenous; conditions: in vivo
Mus musculus [7] = test: Reduction of plasma triglyceride level in western diet-induced hyperlipidemia LDLR knockout mouse model at 3 mg/kg, po administered for 6 weeks; format: functional; parameters: scale not given: the % may be the effect or the level left
Mus musculus [8] = test: Reduction of plasma total cholesterol level in western diet-induced hyperlipidemia LDLR knockout mouse model at 3 mg/kg, po administered for 6 weeks; format: functional; parameters: scale not given: the % may be the effect or the level left

Activity [1]: inactive | Activity [2]: inactive | Activity [3]: Not Active | inhibition [4]: 35% | Vd [5]: 3.3 L/kg | half-life [6]: 40.1 h
SMILES: CC(C)OC(=O)C1=CN(C(=O)c2ccc(F)c(F)c2)CC(C)(C)c2c1[nH]c1ccccc21 [TUROFEXORATE ISOPROPYL]
Activity (Mus musculus [7]): 39% | Activity (Mus musculus [8]): 50%
